From US20260272865A1, “HYDROXYPHENYL PROPANOATE COMPOUNDS FOR TUMOUR IMMUNOTHERAPY, COMPOSITIONS AND USES THEREOF” (UTI LIMITED PARTNERSHIP, priority 2023, published 2026)
“Also recorded” adds a separate entry of the source.

Experiments:
[1] = test system: GSDMD regulated cytokines; test: Cytokine level of tumour interstitial fluid of M3-9-M^OVA tumours; assay type: in vivo, mouse
Experimental: Cells were seeded in a 96-well plate at a density of 0.5-1.0×10^6 cells/well and treated with PRR agonists in combination with or without metabolites. To measure cytokine levels, culture supernatant was collected at specific timepoints. To check cytokine levels of the tumour interstitial fluid, samples were prepared following the protocol, as mentioned by Kim et al (Nat. Commun. 8, (2017)). Cellular IL-1 levels were determined by incubating HEK-Blue™ IL-1β cells ([…]) with the collected culture supernatant and measuring the SEAP levels in the culture medium using QUANTI-Blue™ solution ([…]). Multiplexed quantification of cytokines, chemokines, and growth factors was also conducted by Eve Technologies Corp. (Calgary, Alberta) using the Luminex™ 200 system (Luminex, Austin, TX, USA).

OVA-specific CD8 T cells = test: Flow cytometry of OVA-specific CD8 T cells within M3-9-M^OVA tumours; assay type: in vivo, mouse; details: male IMDM-CR mice, 18 days after implantation
Experimental: Tumours were isolated from mice and single cell suspensions were made using a mouse tumour dissociation kit following the manufacturer's instructions (Miltenyi Biotec). The isolated tumours were minced into pieces ~2-4 mm in diameter using a sterile scalpel, homogenized the tumour samples in RPMI 1640 media and enzyme mix for 1 minute, and incubated the homogenates for 40 minutes with continuous gentle shaking at 37° C. The homogenates were then filtered through a 70 μm cell strainer followed by centrifuging the single cell suspensions. The red blood cells (RBC) were removed using RBC lysis buffer. A Percoll gradient based leukocyte separation was performed followed by live and dead cell staining using Zombie Aqua dye (BioLegend). Cell surface markers were stained using ant-CD4-FITC (clone RM4-4, BioLegend), anti-CD8-PE.Cy7 (clone 53-6.7, BioLegend), anti-CD3-BV421 (clone 145-2C11, BioLegend), anti-CD45-APC.Cy7 (clone 30-F11, BioLegend), anti-PD-1-FITC (clone 29F.1A12, BioLegend), anti-TIM3-PE (clone RMT3-23, BioLegend) and anti-LAG3-PerCP/Cy5.5 (clone C9B7W, BioLegend) for T lymphocytes. For OVA-specific CD8 T cell detection, H-2K(b) chicken ova 257-264 human B2M SIINFEKL Alexa 647-labeled tetramer was used. The cells were washed after staining with FACS buffer and quantified using the Attune NxT Flow Cytometer (Thermo Fisher Scientific).

O=C(O)CCc1ccccc1O [Compound I-1, 3-(2-hydroxyphenyl)propanoic acid]
IL-1β release ([1]; M3-9-M^OVA tumours): notable increase
secretion of GSDMD regulated cytokines / cytokine milieu in TME ([1]; male JAX C57BL/6 mice, 14 days, treatment from day 1, listed as 3,2-HPP): impacted the secretion; also recorded: significantly shifts
expression of exhaustion markers PD1, TIM3, LAG3 on OVA-specific CD8 T cells (OVA-specific CD8 T cells): no significant changes
frequency of OVA-specific CD8 T cells in the tumour (OVA-specific CD8 T cells): increase the frequency
